Where two headings read alike, the source gives them in different places.
Assays:
[1] = system: HDQ-P1 (PI3Kα wild-type), p-PRAS40; assay: p-PRAS40 MSD assay in HDQ-P1 cells (Example 907); details: Homo sapiens, HDQ-P1, 24 h, read-out: P-PRAS40 HDQ-P1 MSD EC50
Description: (§1) The following day, cells are treated with compounds and incubated for 24 hours. […] The HCC1954 cell line expresses mutant PI3Kα (E545K) vs WT in HDQP1.
(§2) The MSD platform provides a method of measuring the phosphorylated levels of pPRAS40 in a single sample. […] Following cell lysis, PRAS40 in samples is allowed to bind to the capture antibodies.
(§3) Procedure: • Compounds prepared at concentration of 2 mM in DMSO.
(§4) Day 1: Cell Plating • 1. Seed 12.500 cells in 45 ul medium for each cell line. Allow cells to settle/attach to plate for 15-20 min at room temperature. • 2. Incubate cells overnight in a 37° C. humidity and CO2 controlled incubator.
(§5) Day 2: Compound Plate Preparation and Compound Treatment • 1. For the 10× intermediate dilution plate: add 95 ul serum-free media into a standard profile greiner 384 well polypropylene plate. • 2. Use biomek Fx protocol for intermediate compound dilution in media and addition to cells: “SLS Intermed Dil Add 5 ul to Cells Jul. […] The method then transfers 5 ul from the intermediate dilution plate to the appropriate cell plate. • 3. Incubate the treated cells at 37 degrees for 24 hours in a 5% CO2 humidified incubator.
(§6) Block the MSD assay plate with 50 ul 3% Blocker A/1×MSD Wash Buffer 1-2 hr at room temp. […] Blocking buffer A contains 1×MSD wash buffer. 20 mL 1× Tris Wash buffer and 600 mg Blocker A.
(§7) Aspirate Media and Lyse the Cells • 1. Lyse the cells in 50 μl lysis buffer. Lyse at room temperature for 10-20 minutes on plate shaker. • 2. While cells are lysing, wash blocked plates 1×MSD wash buffer. • 3. Transfer 42 ul lysates (21+21 μL) to a blocked MSD pPRAS40 assay plate. • 4. Seal MSD plates and incubate at 4° C. with shaking overnight.
(§8) Day 4: MSD Assay/Detection • 8. Make a solution of 1% Blocker A in 1×MSD wash buffer. (20 mL 1× Tris Wash buffer and 200 mg Blocker A (1% w/v). This solution can be stored at 4° C. for up to one month. • 9. Wash the MSD plates with 1×MSD wash buffer. • 10. Add 10 μl of the diluted SULFO-TAG detection antibody to the plates. Incubate for 1 hr with shaking at room temp.
(§9) Wash the plates 4× with 1×MSD wash buffer. • 12. Add 35 μl 1× Read buffer with reverse pipetting to avoid bubbles. • 13. Read the plate immediately on the MSD SECTOR instrument.

[2] = system: SW48 (E545K) PI3Kα mutant cells, P-PRAS40; assay: Inhibition of P-PRAS40 in SW48 isogenic cells, helical domain mutant E545K (Example 902); details: Homo sapiens, SW48, 24 h, read-out: P-PRAS40 SW48 (E545K) EC50
[3] = system: HCC1954 cells (PI3Kα mutant H1047R); assay: Cell viability / antiproliferative assay in HCC1954 cells (Example 903); details: Homo sapiens, HCC1954, 96 h, read-out: HCC1954 antiproliferative EC50
[4] = system: SW48 (H1047R) PI3Kα mutant cells, P-PRAS40; assay: Inhibition of P-PRAS40 in SW48 isogenic cells, kinase domain mutant H1047R (Example 902); details: Homo sapiens, SW48, 24 h, read-out: P-PRAS40 SW48 (H1047R) EC50
[5] = system: SW48 (parental) PI3Kα wild-type cells, P-PRAS40; assay: Inhibition of P-PRAS40 in SW48 isogenic cells, PI3Kα wild-type parental (Example 902); details: Homo sapiens, SW48, 24 h, read-out: P-PRAS40 SW48 (parental) EC50
[6] = molecular target: p110α (Homo sapiens (Human), UniProt P42336, H1047R); assay: p110α degradation, Western blot in HCC1954 and HDQ-P1 cells after 24 hour treatment (Example 905); assay type: cell-based; details: HCC1954 (PI3Kα mutant H1047R) vs. HDQ-P1 (PI3Kα wild-type)
p110α, sequence (P42336 whole entry H1047R): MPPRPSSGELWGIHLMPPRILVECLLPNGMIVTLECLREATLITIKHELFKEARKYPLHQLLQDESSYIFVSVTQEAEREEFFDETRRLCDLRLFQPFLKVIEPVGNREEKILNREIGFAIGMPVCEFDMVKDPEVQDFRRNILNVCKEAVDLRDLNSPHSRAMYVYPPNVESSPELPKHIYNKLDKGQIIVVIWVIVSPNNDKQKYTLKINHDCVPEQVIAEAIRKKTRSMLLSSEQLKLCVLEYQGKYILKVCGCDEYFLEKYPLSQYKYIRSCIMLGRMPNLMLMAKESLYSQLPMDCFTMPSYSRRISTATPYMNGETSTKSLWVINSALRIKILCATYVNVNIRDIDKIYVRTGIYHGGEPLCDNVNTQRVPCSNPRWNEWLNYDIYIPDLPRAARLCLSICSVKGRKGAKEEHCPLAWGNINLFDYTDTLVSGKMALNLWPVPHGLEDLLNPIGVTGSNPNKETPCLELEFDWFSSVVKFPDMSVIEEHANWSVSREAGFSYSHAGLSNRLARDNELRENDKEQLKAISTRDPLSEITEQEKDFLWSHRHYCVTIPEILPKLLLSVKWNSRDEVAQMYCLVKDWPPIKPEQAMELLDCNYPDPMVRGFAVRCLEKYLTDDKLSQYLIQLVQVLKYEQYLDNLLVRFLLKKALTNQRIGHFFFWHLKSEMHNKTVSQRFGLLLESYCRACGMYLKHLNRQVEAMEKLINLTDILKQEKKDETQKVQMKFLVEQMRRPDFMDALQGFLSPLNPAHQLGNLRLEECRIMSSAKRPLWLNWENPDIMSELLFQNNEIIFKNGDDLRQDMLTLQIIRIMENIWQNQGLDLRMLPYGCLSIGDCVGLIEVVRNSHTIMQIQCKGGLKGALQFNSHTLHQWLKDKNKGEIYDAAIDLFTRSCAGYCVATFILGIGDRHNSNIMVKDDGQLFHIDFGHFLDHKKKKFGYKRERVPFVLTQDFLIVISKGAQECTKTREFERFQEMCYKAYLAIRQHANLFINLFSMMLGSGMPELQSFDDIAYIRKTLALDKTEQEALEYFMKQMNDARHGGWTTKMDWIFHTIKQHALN
p110α, sequence (P27986 whole entry partner): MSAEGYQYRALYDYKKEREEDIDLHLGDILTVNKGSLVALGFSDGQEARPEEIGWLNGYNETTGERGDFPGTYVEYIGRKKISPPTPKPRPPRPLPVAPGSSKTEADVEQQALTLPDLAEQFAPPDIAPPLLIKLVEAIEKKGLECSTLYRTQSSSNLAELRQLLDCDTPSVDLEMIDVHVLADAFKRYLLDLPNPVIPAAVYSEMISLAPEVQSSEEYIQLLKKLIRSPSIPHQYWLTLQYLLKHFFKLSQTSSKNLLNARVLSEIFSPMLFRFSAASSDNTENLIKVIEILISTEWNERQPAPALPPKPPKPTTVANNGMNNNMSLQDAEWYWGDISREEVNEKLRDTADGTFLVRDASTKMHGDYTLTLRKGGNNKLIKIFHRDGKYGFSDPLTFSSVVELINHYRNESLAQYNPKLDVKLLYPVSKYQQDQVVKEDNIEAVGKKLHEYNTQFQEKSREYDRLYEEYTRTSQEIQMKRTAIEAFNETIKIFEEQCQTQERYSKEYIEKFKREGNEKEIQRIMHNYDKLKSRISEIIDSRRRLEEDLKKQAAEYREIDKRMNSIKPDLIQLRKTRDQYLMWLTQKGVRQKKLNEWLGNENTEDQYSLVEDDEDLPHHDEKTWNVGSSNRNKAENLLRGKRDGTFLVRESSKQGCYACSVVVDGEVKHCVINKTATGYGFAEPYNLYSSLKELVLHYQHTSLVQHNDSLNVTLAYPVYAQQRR
Description: Cell lines were grown under standard tissue culture conditions in RPMI media with 10% fetal bovine serum, 100 U/mL penicillin, and 100 μg/mL streptomycin.

[7] = molecular target: PI3Kα (Homo sapiens (Human), UniProt P42336); assay: Biochemical inhibition of PI3K alpha (ADP-Glo lipid kinase assay, Example 901); details: geometric mean of minimum three experiments unless footnoted
PI3Kα, sequence (P42336 whole entry, canonical isoform): as the sequence (P42336 whole entry H1047R) above, with R1047H counted along it
PI3Kα, sequence (P27986 whole entry partner, canonical isoform): as the sequence (P27986 whole entry partner) above
Description: Reactions are carried out using the following conditions for each PI3K isoform as in Table 5.
All reactions are carried out at room temperature. […] The reaction is started by the addition of 2 μl ATP/MgCl2. The kinase reaction buffer contains 50 mM HEPES, 50 mM NaCl 3 mM MgCl2, 0.01% BSA, 1% DMSO, and enzyme and substrate concentrations as indicated in the above table. The reaction is stopped by the addition of 10 μL ADP-Glo reagent. Plates are read in a Perkin Elmer Envision system using luminescence mode. 10 point dose response curves are generated for each test compound. Ki values for each compound are determined using the Morrison Equation.

[8] = system: HCC1954 (PI3Kα mutant H1047R), p-PRAS40; assay: p-PRAS40 MSD assay in HCC1954 cells (Example 907); details: Homo sapiens, HCC1954, 24 h, read-out: P-PRAS40 HCC1954 MSD EC50
Description: as §1, §2, §3, §4, §5, §6, §7, §8, §9

[9] = Unbound fraction in mouse plasma (Fu); assay type: in vitro ADME; details: read-out: Fu mouse (unbound fraction in species plasma)
[10] = Multiple day oral dosing in dogs (exposure, clinical and anatomic pathology); assay type: in vivo, Beagle dogs; details: for concentration at 14 day / Cmax / AUC(0-t): Beagle, plasma; for concentration at 14 day / Cmax / AUC(0-t) / Cmax D14, free / Exposure AUC0-24 hr, D14, free / Exposure multiples (free, AUC) / Exposure multiples (total, AUC) / Exposure multiples to CD69 IC50 (total, Cmin): dog; for concentration at 14 day: oral, read-out: Cmin D14, total; for Cmax / AUC(0-t): po; for Cmax: read-out: Cmax D14, total; for AUC(0-t): read-out: Exposure AUC0-24 hr, D14, total; for Exposure multiples (free, AUC) / Exposure multiples (total, AUC): vs TGI60 from 21-day HCC1954 TGI study; for Exposure multiples to CD69 IC50 (total, Cmin): whole-blood CD69 IC50 = 142 nM
Description: The extent and severity of findings is consistent with increased inhibition of PI3Kδ (delta) at exposure multiples over CD69 IC50 for the comparator compounds.

[11] = system: MCF7 cells (PI3Kα mutant E545K); assay: Cell viability / antiproliferative assay in MCF7 cells (Example 903); assay type: cell-based; details: Homo sapiens, MCF7, 96 h, read-out: MCF7 antiproliferative EC50
Description: Cells were seeded (1,500 per well) in 384-well plates for 16 h. On day 2, nine serial 1:3 compound dilutions were made in DMSO in a 96-well plate. The compounds were then further diluted into growth media using a Rapidplate robot (Zymark Corp.). […] After 4 d, relative numbers of viable cells were measured by luminescence using Cell Titer-Glo (Promega) according to the manufacturer's instructions and read on a Wallac Multilabel Reader (Perkin-Elmer). EC50 values were calculated using Prism 6.0 software (GraphPad).

[12] = system: CD69 expression in CD19+ CD27− B cells; assay: B-cell a-IgM CD69 expression, human whole blood assay (Example 906); assay type: cell-based
Description: The expression of CD69 in B-cells resultant from a-IgM treatment is believed to be driven by signaling through PI3Kδ (delta).
Human whole blood was dispensed into 96-deep well plates at 100 μl per well. Compounds were diluted in DMSO to generate the desired stock concentrations and then further diluted in PBS to the desired working concentration and added in a volume of 5.5 μL per well. Samples were then incubated for 1 hour at 37° C. under 5% CO2 before the addition of 5 μg (10 μl per well) of Goat anti IgM F(ab′)2 (Southern Biotech, AL), and incubated for 18 hours at 37° C. under 5% CO2. All treatments were tested in duplicate.
In addition, human whole blood from each donor was stained with isotype-matched fluorescent control antibodies. After the addition of the appropriate antibody cocktail the whole blood samples were stained for 30 minutes in the dark and then lysed using BD Pharm Lysis (BD Bioscience, NJ). The resulting samples were then washed with FACS Buffer (Phosphate Buffered Saline (Ca:Mg++ free), 1 mM EDTA, 25 mM HEPES pH 7.0, 1% Fetal Bovine Serum (Heat-Inactivated) and fixed in FACS Buffer supplemented with 0.1% Formaldehyde (Polysciences Inc, PA) and 0.1% Pluronic F-68 (Sigma, MO). Data were acquired using a BD LSR-II (BD Biosciences) with BD FACSDiva software.
Cells were assessed by flow cytometry for levels of CD19, CD27 and CD69 using BD FACSDiva Software and the CD69 MFI-Mean of the CD19^+ CD27^− lymphocyte population was determined.

[13] = Unbound fraction in dog plasma (Fu); assay type: in vitro ADME; details: read-out: Fu dog (unbound fraction in species plasma)

## NC(=O)[C@@H](Nc1ccc2c(c1)OCCn1cc(N3C(=O)OC[C@H]3C(F)F)nc1-2)C1CC1 [Compound 103, (S)-2-Cyclopropyl-2-((2-((S)-4-(difluoromethyl)-2-oxooxazolidin-3-yl)-5,6-dihydrobenzo[f]imidazo[1,2-d][1,4]oxazepin-9-yl)amino)acetamide]
[1]
  EC50: 155 nM
[2]
  EC50: 4.1 nM
[3]
  EC50: 70 nM
[4]
  EC50: 3.8 nM
[5]
  EC50: 10.1 nM
[6]
  p110α levels (Western blot): promote reduction of p110α levels selectively in PI3K mutant
[7]
  Ki: 0.06 nM
[8]
  EC50: 28 nM
[9]
  fraction unbound: 0.03
[10]; 0.1 mg/kg/day
  concentration at 14 day: 4.8 nM
  Cmax: 40 nM
  AUC(0-t): 0.27 µM·h
[10]; 0.3 mg/kg/day
  concentration at 14 day: 11 nM
  Cmax: 130 nM
  AUC(0-t): 0.9 µM·h
[10]; 1 mg/kg/day
  concentration at 14 day: 34 nM
  Cmax: 310 nM
  AUC(0-t): 2.54 µM·h
[10]; Compound 103 0.1 mg/kg/day QD
  Cmax D14, free: 20 nM
  Exposure AUC0-24 hr, D14, free: 0.14 µM·h
  Exposure multiples (free, AUC): 4.7 ×
  Exposure multiples (total, AUC): 0.2 ×
  Exposure multiples to CD69 IC50 (total, Cmin): 0.03×
[10]; Compound 103 0.3 mg/kg/day QD
  Cmax D14, free: 66 nM
  Exposure AUC0-24 hr, D14, free: 0.46 µM·h
  Exposure multiples (free, AUC): 15 ×
  Exposure multiples (total, AUC): 0.8 ×
  Exposure multiples to CD69 IC50 (total, Cmin): 0.08×
[10]; Compound 103 1 mg/kg/day QD
  Cmax D14, free: 160 nM
  Exposure AUC0-24 hr, D14, free: 1.29 µM·h
  Exposure multiples (free, AUC): 43 ×
  Exposure multiples (total, AUC): 2.2 ×
  Exposure multiples to CD69 IC50 (total, Cmin): 0.2×
[10]; multiple-day dosing in Beagle dogs (7-14 days), high exposure multiples
  Lymphoid depletion (summary): only minor amounts of lymphoid depletion at high exposure multiples
[10]; multiple-day dosing in Beagle dogs (7-14 days), 101 and 103 at >5-fold free exposure multiples over TGI60
  Pro-inflammatory signature (clinical pathology or anatomic pathology evaluation): do not promote a pro-inflammatory signature
[11]
  EC50: 30 nM
[12]; Homo sapiens, whole-blood, uncorrected, read-out: a-IgM stimulated CD69 expression (whole-blood) IC50
  IC50: 142 nM
[12]; human whole-blood IC50 multiplied by measured human fu, read-out: B-cell a-IgM CD69 expression IC50, plasma-protein-binding corrected
  IC50: 76 nM
[13]
  fraction unbound: 0.507
